From patent publication US20110178041A1, “HETEROCYCLIC BIARYL DERIVATIVE AND PDE INHIBITOR COMPRISING SAME AS ACTIVE INGREDIENT” (priority 2008, published 2011) come the findings set out here.

Test [1] addresses T1, PDE4B catalytic zone (PDE4Bcat) (Homo sapiens, UniProt Q07343).
T1 construct: made in house; host or cells: Sf9 insect cells (baculovirus, Bac-to-Bac / Gateway)
Kind of test: Phosphodiesterase 4 inhibitory activity ([3H]-cAMP, recombinant PDE4Bcat). Format: biochemical. The conditions noted are these: 30° C. 20 minutes, read-out: IC50 (μmol/L) PDE4.

Test [2] addresses T2, PDE3A catalytic zone (PDE3Acat) (Homo sapiens, UniProt Q14432).
T2 construct: made in house; host or cells: Sf9 insect cells (baculovirus, Bac-to-Bac / Gateway)
Description: Phosphodiesterase 3-inhibitory activity ([3H]-cAMP, recombinant PDE3Acat). The conditions noted are these: 30° C. 20 minutes, read-out: IC50 value, PDE3. Type of test: biochemical.

Test [3] has as its system LPS-induced pulmonary inflammation (total leukocytes in BALF). Description: LPS-induced pulmonary inflammation in rats. Type of test: in vivo. Particulars: Leukocyte; rat, 3 mg/kg oral one hour before LPS inhalation, BALF 3 hours after LPS; read-out: rate of inhibition of total number of leukocytes in BALF. The method, then:
One hour before the inhalation of lipopolysaccharide from E. coli serotype 055:B5 (LPS), each candidate compound was orally administered to each test rat in a dose of 3 mg/kg, and then the test animal was allowed to inhale an LPS solution (50 mL) over 30 minutes, while the solution was atomized using a nebulizer. After 3 hours from the LPS-inhalation, the rats were euthanized by the administration of a 20% urethane solution (5 ml/rat, i.p.). The bronchial cannula was inserted through the trachea. Broncoalveolar lavage was performed by injecting 5 ml physiological saline, three consecutive times using a 5 mL volume syringe. The operations were repeated twice and these physiological saline samples were recovered as broncoalveolar lavage fluid (BALF). Each of the BALF thus recovered was centrifuged at 1200 rpm and 4° C. for 10 minutes (Hirtachi; himac […]), the resulting residue was again suspended in 10 mL of 0.1% bovine serum albumin-containing physiological saline, an equivalent volume of Turk's diluting fluid was added to the suspension to thus stain the leukocytes present therein and the total number of leukocytes was determined under the microscopic observation to thus calculate the rate of inhibition.

T2 sequence (Q14432 674-1093 limits assumed): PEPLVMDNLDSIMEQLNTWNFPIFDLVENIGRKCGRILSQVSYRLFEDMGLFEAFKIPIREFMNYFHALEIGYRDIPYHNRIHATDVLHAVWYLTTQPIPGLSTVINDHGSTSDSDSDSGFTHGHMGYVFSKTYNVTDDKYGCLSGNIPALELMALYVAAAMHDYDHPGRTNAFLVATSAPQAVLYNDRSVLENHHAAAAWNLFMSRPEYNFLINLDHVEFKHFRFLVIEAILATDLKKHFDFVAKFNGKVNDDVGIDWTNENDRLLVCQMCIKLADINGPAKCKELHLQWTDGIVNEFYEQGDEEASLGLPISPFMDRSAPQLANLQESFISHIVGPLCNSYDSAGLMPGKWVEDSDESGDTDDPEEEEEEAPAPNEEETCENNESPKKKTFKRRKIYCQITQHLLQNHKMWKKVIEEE
T1 sequence (Q07343 330-659 limits assumed): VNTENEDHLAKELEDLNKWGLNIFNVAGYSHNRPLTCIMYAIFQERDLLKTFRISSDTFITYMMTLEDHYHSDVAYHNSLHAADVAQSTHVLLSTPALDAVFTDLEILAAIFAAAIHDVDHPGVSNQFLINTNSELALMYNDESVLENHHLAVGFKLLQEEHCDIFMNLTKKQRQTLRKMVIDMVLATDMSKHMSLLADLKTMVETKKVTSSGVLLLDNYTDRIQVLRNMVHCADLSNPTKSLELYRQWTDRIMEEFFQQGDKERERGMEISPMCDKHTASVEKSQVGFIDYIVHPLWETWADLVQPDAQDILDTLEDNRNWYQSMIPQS

Turning to `COc1ccc(-c2ccc3c(c2)CCNC3=O)c2cc(C(F)(F)F)nn12` [Example 58, 6-(7-Methoxy-2-trifluoromethylpyrazolo[1,5-a]pyridin-4-yl)-3,4-dihydroisoquinolin-1(2H)-one], the IC50 in test [1] was 0.01 to 0.1 µmol/L; in test [2] it was above 1000 nM. Besides, the inhibition in vivo at 3 mg/kg in test [3] is at least 60%.

`COc1ccc(-c2ccc3c(c2)CNC3=O)c2cc(C(F)(F)F)nn12` [Example 59, 5-(7-Methoxy-2-trifluoromethylpyrazolo[1,5-a]pyridin-4-yl)isoindolin-1-one]: the values for the IC50 in test [1] and in test [2] were 0.01 to 0.1 µmol/L and above 1000 nM, respectively. Besides, the inhibition in vivo at 3 mg/kg in test [3] is at least 60%.

For `COc1ccc(-c2ccc3c(=O)[nH]cc(Cl)c3c2)c2cc(C(F)(F)F)nn12` [Example 60, 4-Chloro-6-(7-methoxy-2-trifluoromethylpyrazolo[1,5-a]pyridin-4-yl)isoquinolin-1(2H)-one], the IC50 is below 0.01 µmol/L in test [1] and above 1000 nM in test [2]. In addition, in test [3], the inhibition in vivo at 3 mg/kg was at least 60%.

Consider `COc1ccc(-c2ccc3c(c2)CCNC3=O)c2c(Cl)c(C(F)(F)F)nn12` [Example 62, 6-(3-Chloro-7-methoxy-2-trifluoromethylpyrazolo[1,5-a]pyridin-4-yl)-3,4-dihydroisoquinolin-1(2H)-one], for which the IC50 in test [1] was below 0.01 µmol/L. For the same molecule, the inhibition in vivo at 3 mg/kg in test [3] was at least 60%.

On to `CNc1ccc(-c2ccc3c(c2)CCNC3=O)c2cc(C(F)(F)F)nn12` [Example 63, 6-(7-Methylamino-2-trifluoromethylpyrazolo[1,5-a]pyridin-4-yl)-3,4-dihydroisoquinolin-1(2H)-one], for which the IC50 is below 0.01 µmol/L in test [1] and above 1000 nM in test [2]. Moreover, the inhibition in vivo at 3 mg/kg in test [3] was at least 60%.

Turning to `CNc1ccc(-c2ccc3[nH]c(=O)ccc3c2)c2cc(C(F)(F)F)nn12` [Example 64, 6-(7-Methylamino-2-trifluoromethylpyrazolo[1,5-a]pyridin-4-yl)quinolin-2(1H)-one], the IC50 in test [1] is below 0.01 µmol/L; in test [2] it was above 1000 nM. Also, the inhibition in vivo at 3 mg/kg in test [3] is at least 60%.

As for `COc1ccc(-c2ccc3[nH]c(=O)ccc3c2)n2c(Cl)c(C(F)(F)F)nc12` [Example 89, 6-(3-Chloro-8-methoxy-2-(trifluoromethyl)imidazo[1,2-a]pyridin-5-yl)quinolin-2(1H)-one], the IC50 in test [1] is below 0.01 µmol/L; in test [2] it was above 1000 nM. Further, the inhibition in vivo at 3 mg/kg in test [3] was at least 60%.

As to `COc1ccc(-c2ccc3c(c2)CCC(=O)N3C)c2cc(C(F)(F)F)nn12` [Example 102, 6-(7-Methoxy-2-trifluoromethylpyrazolo[1,5-a]pyridin-4-yl)-1-methyl-3,4-dihydroquinolin-2(1H)-one], the IC50 in test [1] is 0.01 to 0.1 µmol/L; in test [2], above 1000 nM. For the same molecule, in test [3], the inhibition in vivo at 3 mg/kg is at least 60%.

As to `COc1ccc(-c2ccc3c(ccc(=O)n3C)c2)c2c(Cl)c(C(F)(F)F)nn12` [Example 115, 6-(3-Chloro-7-methoxy-2-trifluoromethylpyrazolo[1,5-a]pyridin-4-yl)-1-methylquinolin-2(1H)-one], the IC50 in test [1] was below 0.01 µmol/L; in test [2], above 1000 nM. Moreover, in test [3], the inhibition in vivo at 3 mg/kg is at least 60%.

In the case of `COc1ccc(-c2ccc3c(c2)CCNC3=O)c2cc(C3CC3)nn12` [Example 121, 6-(2-Cyclopropyl-7-methoxypyrazolo[1,5-a]pyridin-4-yl)-3,4-dihydroisoquinolin-1(2H)-one], the IC50 was 0.01 to 0.1 µmol/L in test [1] and above 1000 nM in test [2]. Also, the inhibition in vivo at 3 mg/kg in test [3] was at least 60%.

`Nc1ccc(-c2ccc3c(=O)[nH]cc(Cl)c3c2)c2cc(C(F)(F)F)nn12` [Example 141, 6-(7-Amino-2-trifluoromethylpyrazolo[1,5-a]pyridin-4-yl)-4-chloro isoquinolin-1(2H)-one]: the IC50 in test [1] was 0.01 to 0.1 µmol/L.

On to `CNc1ccc(-c2ccc3[nH]c(=O)ccc3c2)n2c(Cl)c(C(F)(F)F)nc12` [Example 142, 6-(3-Chloro-8-methylamino-2-trifluoromethylimidazo[1,2-a]pyridin-5-yl)quinolin-2(1H)-one], for which the results for the IC50 in test [1] and in test [2] were below 0.01 µmol/L and above 1000 nM, respectively. In test [3], the inhibition in vivo at 3 mg/kg is at least 60%.

For `CNc1ccc(-c2ccc3c(c2)CCNC3=O)n2c(Cl)c(C(F)(F)F)nc12` [Example 143, 6-(3-Chloro-8-methylamino-2-trifluoromethylimidazo[1,2-a]pyridin-5-yl)-3,4-dihydroisoquinolin-1(2H)-one], the IC50 in test [1] was below 0.01 µmol/L; in test [2], above 1000 nM. For the same molecule, the inhibition in vivo at 3 mg/kg in test [3] is at least 60%.

Regarding `CNc1ccc(-c2ccc3c(=O)[nH]cc(Cl)c3c2)n2cc(C(F)(F)F)nc12` [Example 144, 4-Chloro-6-(8-(methylamino)-2-trifluoromethylimidazo[1,2-a]pyridin-5-yl)isoquinolin-1(2H)-one], in test [1], the IC50 was below 0.01 µmol/L.

On to `CNc1ccc(-c2ccc3c(=O)[nH]cc(Cl)c3c2)n2c(Cl)c(C(F)(F)F)nc12` [Example 145, 4-Chloro-6-(3-chloro-8-(methylamino)-2-trifluoromethylimidazo[1,2-a]pyridin-5-yl)isoquinolin-1(2H)-one], for which the IC50 in test [1] is below 0.01 µmol/L.

Take `Nc1ccc(-c2ccc3c(=O)[nH]cc(Cl)c3c2)n2cc(C(F)(F)F)nc12` [Example 146, 6-(8-Amino-2-trifluoromethylimidazo[1,2-a]pyridin-5-yl)-4-chloro-isoquinolin-1(2H)-one]: in test [1], the IC50 was 0.01 to 0.1 µmol/L.
